From ChEMBL document CHEMBL5226306, “Intestinal Excretion, Intestinal Recirculation, and Renal Tubule Reabsorption Are Underappreciated Mechanisms That Drive the Distribution and Pharmacokinetic Behavior of Small Molecule Drugs” (J Med Chem, 2021)
Values belong to the compound of their own block, whether it stands above or below them.

Assays:
[1] = Unbound fraction in human plasma; assay type: ADME, cell-free
[2] = Clearance in dog bile; assay type: ADME, tissue-based, Canis lupus familiaris; settings: in vivo
[3] = Total systemic clearance in dog; assay type: ADME, Canis lupus familiaris; settings: in vivo
in vivo [4] = settings: rat
[5] = Drug recovery in IV dosed BDC rat feces; assay type: ADME, organism-based; settings: faeces, read-out: Drug recovery
[6] = Total systemic clearance in rat; assay type: ADME; settings: in vivo
[7] = Intestinal excretion in iv dosed rat; assay type: ADME, organism-based, Intestine; settings: in vivo, read-out: Drug excretion
[8] = Intestinal excretion in iv dosed dog; assay type: ADME, organism-based, Canis lupus familiaris, Intestine; settings: in vivo, read-out: Drug excretion
[9] = Tubular reabsorption in dog; assay type: ADME, Canis lupus familiaris
[10] = Intestinal clearance in dog; assay type: ADME, Canis lupus familiaris; settings: in vivo
[11] = Renal excretion in rat; assay type: ADME, tissue-based, Kidney; settings: in vivo, read-out: Drug excretion (converted)
[12] = Drug excretion in rat bile; assay type: ADME, tissue-based; settings: read-out: Drug excretion
[13] = Intestinal clearance in human; assay type: ADME
[14] = Drug elimination in human urine; assay type: ADME, tissue-based; settings: read-out: Drug excretion
[15] = Total plasma clearance in rat assessed as hepatic blood flow; assay type: ADME, cell-free
[16] = Total plasma clearance in dog assessed as hepatic blood flow; assay type: ADME, cell-free, Canis lupus familiaris
[17] = Renal clearance in dog; assay type: ADME, tissue-based, Canis lupus familiaris, Kidney; settings: in vivo
[18] = Clearance in rat urine; assay type: ADME, tissue-based
[19] = Elimination half life in human
[20] = Drug excretion in BDC dog urine; assay type: ADME, tissue-based, Canis lupus familiaris
[21] = Volume of distribution in human
[22] = Total plasma clearance in human assessed as hepatic blood flow; assay type: ADME, cell-free
[23] = Intestinal clearance in rat; assay type: ADME; settings: in vivo
[24] = Oral bioavailability in human; assay type: ADME, organism-based; settings: in vivo
in vivo [25] = settings: rat, po

fraction unbound [1]: 0.01 | CL [2]: 0.04 mL/min/kg | CL [3]: 19%
Compound: CS(=O)(=O)c1ccc(C(=O)Nc2ccc(Cl)c(-c3ccccn3)c2)c(Cl)c1 [VISMODEGIB]

fraction unbound [1]: 0.085 | CL renal (in vivo [4]): 0.08 mL/min/kg
Compound: CCOc1ccc(Cc2cc([C@@H]3O[C@H](CO)[C@@H](O)[C@H](O)[C@H]3O)ccc2Cl)cc1 [DAPAGLIFLOZIN]

Fu [1]: 0.01
Compound: CC(C)(O)[C@H](F)CN1Cc2cc(NC(=O)c3cnn4cccnc34)c(N3CCOCC3)cc2C1=O

dose excreted [5]: 20% | CL [6]: 20% | dose excreted [7]: 20% | dose excreted [8]: 20%
Compound: COc1ccc(-n2nc(C(N)=O)c3c2C(=O)N(c2ccc(N4CCCC[14C]4=O)cc2)CC3)cc1

Fu [1]: 0.2
Compound: C[C@H]1O[C@@H](O[C@H]2[C@@H](O)C[C@H](O[C@H]3[C@@H](O)C[C@H](O[C@H]4CC[C@@]5(C)[C@H](CC[C@@H]6[C@@H]5C[C@@H](O)[C@]5(C)[C@@H](C7=CC(=O)OC7)CC[C@]65O)C4)O[C@@H]3C)O[C@@H]2C)C[C@H](O)[C@@H]1O [DIGOXIN]

fraction unbound [1]: 0.4
Compound: O=C1CN(/N=C/c2ccc([N+](=O)[O-])o2)C(=O)N1 [NITROFURANTOIN]

Drug absorption [9]: 0.483 mL/min/kg | CL [10]: > 42% | CL renal [11]: 0.217 mL/min/kg | dose excreted [12]: 10% | fraction unbound [1]: 0.07 | CL [13]: > 27% | dose excreted [14]: 27% | QH [15]: < 5% | QH [16]: < 5% | CL renal [17]: 0.333 mL/min/kg | CL renal [18]: 11.8 mL/min/kg | half-life [19]: 12 h | dose excreted [20]: 21% | Vd [21]: 0.3 L/kg | QH [22]: < 5% | CL [23]: > 20% | bioavailability [24]: 49% | Tmax (in vivo [25]): 2 h
Compound: COc1ccc(-n2nc(C(N)=O)c3c2C(=O)N(c2ccc(N4CCCCC4=O)cc2)CC3)cc1 [APIXABAN]
